The source of these data is US20210255193A1, “LYSINE REACTIVE PROBES AND USES THEREOF” (The Scripps Research Institute, priority 2017, published 2021).

Assay in all cases: competitive isoTOP-ABPP
What all share (type): binding

In experiment [1] the target is T1, SPAST Spastin (Homo sapiens, UniProt Q9UBP0).
T1 construct: endogenous in cells; host or cells: MDA-MB-231 lysate
T1 sequence (Q9UBP0 1-616): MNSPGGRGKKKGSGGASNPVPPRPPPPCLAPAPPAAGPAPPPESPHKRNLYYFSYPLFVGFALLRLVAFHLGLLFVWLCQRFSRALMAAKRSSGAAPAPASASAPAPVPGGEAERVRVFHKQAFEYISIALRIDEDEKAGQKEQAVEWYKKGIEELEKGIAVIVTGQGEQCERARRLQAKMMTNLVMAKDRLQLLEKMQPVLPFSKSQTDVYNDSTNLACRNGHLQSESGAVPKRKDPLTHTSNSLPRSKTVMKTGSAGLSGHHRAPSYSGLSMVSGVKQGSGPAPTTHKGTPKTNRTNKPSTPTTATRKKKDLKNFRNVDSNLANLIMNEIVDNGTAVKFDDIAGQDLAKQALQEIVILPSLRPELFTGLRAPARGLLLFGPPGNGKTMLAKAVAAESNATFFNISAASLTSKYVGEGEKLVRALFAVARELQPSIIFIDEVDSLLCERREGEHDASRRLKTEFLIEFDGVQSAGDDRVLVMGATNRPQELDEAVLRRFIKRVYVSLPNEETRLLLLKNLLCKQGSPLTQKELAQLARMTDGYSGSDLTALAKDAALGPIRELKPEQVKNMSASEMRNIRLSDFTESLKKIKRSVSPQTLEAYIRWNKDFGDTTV
The settings on record: 50 uM, 231 sol, in vitro; for R value (DMSO/fragment) for probe 1 labeling: Q9UBP0_K180. Put shortly:
(§1)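 Lysate + fragment (50 μM activated ester / 100 μM guanidinylating agent) or DMSO → 0.1 mM STP-alkyne, 1 h, RT → CuAAC to TEV tags (compound light, DMSO heavy) → LC-MS. R = heavy/light MS1 area; liganded lysine if R≥4.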

For experiment [2], the target named is T2, LDHB L-lactate dehydrogenase B chain (Homo sapiens, UniProt P07195).
T2 construct: isoTOP-ABPP experiments performed in cell lysates (in vitro); endogenous in cells; host or cells: MDA-MB-231 soluble lysate
T2 sequence (P07195 whole entry): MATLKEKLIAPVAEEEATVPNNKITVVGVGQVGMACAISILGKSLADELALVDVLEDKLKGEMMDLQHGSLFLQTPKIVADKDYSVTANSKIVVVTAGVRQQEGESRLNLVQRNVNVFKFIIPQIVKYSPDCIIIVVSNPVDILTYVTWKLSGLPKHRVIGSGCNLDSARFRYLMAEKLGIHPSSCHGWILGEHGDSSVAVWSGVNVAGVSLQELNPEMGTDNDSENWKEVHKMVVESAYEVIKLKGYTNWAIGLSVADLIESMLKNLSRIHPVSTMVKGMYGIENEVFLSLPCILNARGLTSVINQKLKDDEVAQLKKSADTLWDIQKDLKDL
The settings on record: 50 uM, 231 sol, in vitro. The method in brief: as §1

Experiment [3] deals with T3, CDK2 Cyclin-dependent kinase 2 (Homo sapiens, UniProt P24941).
T3 construct: isoTOP-ABPP experiments performed in cell lysates (in vitro); endogenous in cells; host or cells: soluble proteome of human cancer cell lines (MDA-MB-231; Ramos and Jurkat also prepared)
As to conditions: 50 uM, 231 sol, in vitro. The method in brief: as §1

The target in experiment [4] is T4, ATP6V1F V-type proton ATPase subunit F (Homo sapiens, UniProt Q16864).
T4 construct: isoTOP-ABPP experiments performed in cell lysates (in vitro); endogenous in cells; host or cells: soluble proteome of human cancer cell lines (MDA-MB-231; Ramos and Jurkat also prepared)
T4 sequence (Q16864 whole entry): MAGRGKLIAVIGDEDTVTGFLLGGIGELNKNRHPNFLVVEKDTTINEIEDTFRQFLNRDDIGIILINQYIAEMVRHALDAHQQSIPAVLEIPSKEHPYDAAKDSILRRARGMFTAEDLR
The settings on record: 50 uM, 231 sol, in vitro. Put shortly: as §1

Experiment [5] has as its target T5, ARL6IP1 ADP-ribosylation factor-like protein 6-interacting (Homo sapiens, UniProt Q15041).
T5 construct: isoTOP-ABPP experiments performed in cell lysates (in vitro); endogenous in cells; host or cells: soluble proteome of human cancer cell lines (MDA-MB-231; Ramos and Jurkat also prepared)
The settings on record: 50 uM, 231 sol, in vitro. The method in brief:
as §1

The target of experiment [6] is T6, AKR1C3 Aldo-keto reductase family 1 member C3 (Homo sapiens, UniProt P42330).
T6 construct: isoTOP-ABPP experiments performed in cell lysates (in vitro); endogenous in cells; host or cells: soluble proteome of human cancer cell lines (MDA-MB-231; Ramos and Jurkat also prepared)
T6 sequence (P42330 1-323): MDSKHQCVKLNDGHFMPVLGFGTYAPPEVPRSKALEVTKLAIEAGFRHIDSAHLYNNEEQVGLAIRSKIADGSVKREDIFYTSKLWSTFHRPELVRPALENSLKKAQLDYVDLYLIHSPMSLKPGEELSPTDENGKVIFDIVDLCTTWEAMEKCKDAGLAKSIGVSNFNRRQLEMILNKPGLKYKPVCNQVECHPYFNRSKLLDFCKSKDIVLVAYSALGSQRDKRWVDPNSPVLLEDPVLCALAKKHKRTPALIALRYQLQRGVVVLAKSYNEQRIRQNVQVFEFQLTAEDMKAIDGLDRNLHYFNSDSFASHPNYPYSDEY
As to conditions: 50 uM, 231 sol, in vitro. Put shortly:
as §1

T5 sequence (Q15041 whole entry): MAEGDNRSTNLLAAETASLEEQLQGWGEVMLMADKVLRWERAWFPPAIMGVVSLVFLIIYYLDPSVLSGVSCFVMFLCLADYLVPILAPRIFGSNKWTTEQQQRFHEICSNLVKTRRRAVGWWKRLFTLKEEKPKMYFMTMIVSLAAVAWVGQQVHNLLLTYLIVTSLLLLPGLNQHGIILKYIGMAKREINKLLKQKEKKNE

As for `O=C(CCc1cn(-c2ccccc2)nc1-c1ccccc1)Oc1c(F)c(F)c(F)c(F)c1F` [fragment 19, Pentafluorophenyl 3-(1,3-diphenyl-1H-pyrazol-4-yl)propanoate], in experiment [1], the “R value (DMSO/fragment) for probe 1 labeling” value is 1.3.

Consider `Cn1cc(CC(=O)Oc2c(F)c(F)c(F)c(F)c2F)c2ccccc21` [fragment 22, Pentafluorophenyl 2-(1-methyl-1H-indol-3-yl)acetate], for which the “R value (DMSO/fragment) for probe 1 labeling” value is on record as 0.8 in experiment [2] (P07195_K82); 1.0 in experiment [2] (P07195_K244); 1.5 in experiment [3] (P24941_K33); 1.0 in experiment [1]; 1.1 in experiment [4] (Q16864_K6).

For `O=C(Oc1c(F)c(F)c(F)c(F)c1F)C1CCN(C(=O)OCc2ccccc2)CC1` [fragment 24, 1-Benzyl 4-(pentafluorophenyl) piperidine-1,4-dicarboxylate], the “isoTOP-ABPP reactivity ratio at lysine Q15041_K188” value in experiment [5] turned out to be 2.4. In addition, the “isoTOP-ABPP reactivity ratio at lysine Q9UBP0_K180” value in experiment [1] amounted to 1.1. Besides, the “isoTOP-ABPP reactivity ratio at lysine P42330_K270” value in experiment [6] amounted to 4.2.

As for `O=C(Oc1c(F)c(F)c(F)c(F)c1F)c1ccc2ccccc2n1` [fragment 25, Pentafluorophenyl quinoline-2-carboxylate], the “isoTOP-ABPP reactivity ratio at lysine Q9UBP0_K180” value in experiment [1] is recorded as 1.2.

`O=C(CCc1coc2cc(F)ccc2c1=O)Oc1c(F)c(F)c(F)c(F)c1F` [fragment 26, Pentafluorophenyl 3-(7-fluoro-4-oxo-4H-chromen-3-yl)propanoate]: the “isoTOP-ABPP reactivity ratio at lysine P07195_K82” value in experiment [2] was determined as 0.7.

As to `O=C(CN1C(=O)c2ccccc2C1=O)Oc1c(F)c(F)c(F)c(F)c1F` [fragment 27, Pentafluorophenyl 2-(1,3-dioxoisoindolin-2-yl)acetate], in experiment [1], the “isoTOP-ABPP reactivity ratio at lysine Q9UBP0_K180” value came out at 2.1. Also, in experiment [6], the “isoTOP-ABPP reactivity ratio at lysine P42330_K270” value was determined as 2.7.

Take `CCn1cc(C(=O)Oc2c(F)c(F)c(F)c(F)c2F)c(=O)c2ccc(C)nc21` [fragment 28, Pentafluorophenyl 1-ethyl-7-methyl-4-oxo-1,4-dihydro-1,8-naphthyridine-3-carboxylate]: in experiment [1], the “isoTOP-ABPP reactivity ratio at lysine Q9UBP0_K180” value stood at 1.0. For the same compound, the “isoTOP-ABPP reactivity ratio at lysine P42330_K270” value in experiment [6] was 1.8.

Take `O=C(CCc1cn(-c2ccccc2)nc1-c1ccccc1)Oc1ccc([N+](=O)[O-])cc1[N+](=O)[O-]` [fragment 29, 2,4-Dinitrophenyl 3-(1,3-diphenyl-1H-pyrazol-4-yl)propanoate]: in experiment [3], the “isoTOP-ABPP reactivity ratio at lysine P24941_K33” value came out at 0.9. Besides, the “isoTOP-ABPP reactivity ratio at lysine Q9UBP0_K180” value in experiment [1] came out at 1.2. For the same compound, in experiment [4], the “isoTOP-ABPP reactivity ratio at lysine Q16864_K6” value was found to be 0.8. Besides, in experiment [6], the “isoTOP-ABPP reactivity ratio at lysine P42330_K270” value worked out at 2.1.

Turning to `O=C(Oc1ccc([N+](=O)[O-])cc1[N+](=O)[O-])C(c1ccccc1)c1ccccc1` [fragment 30, 2,4-Dinitrophenyl 2,2-diphenylacetate], in experiment [2], the “isoTOP-ABPP reactivity ratio at lysine P07195_K82” value is on record as 20.0 and the “isoTOP-ABPP reactivity ratio at lysine P07195_K244” value is reported as 1.2. For the same compound, the “isoTOP-ABPP reactivity ratio at lysine Q16864_K6” value in experiment [4] amounted to 20.0.

As for `O=C(Oc1ccc([N+](=O)[O-])cc1[N+](=O)[O-])c1cc(C(F)(F)F)cc(C(F)(F)F)c1` [fragment 31, 2,4-Dinitrophenyl 3,5-bis(trifluoromethyl)benzoate], the “isoTOP-ABPP reactivity ratio at lysine Q9UBP0_K180” value in experiment [1] was found to be 1.1.
